{"source": "paper PMC4844176", "about": "(Xenobiotica; the fate of foreign compounds in biological …, 2015)", "key": {"[1]": {"molecular_target": "T1, UGT1A8 (Homo sapiens, UniProt Q9HAW9)", "T1 sequence (Q9HAW9 26-530)": "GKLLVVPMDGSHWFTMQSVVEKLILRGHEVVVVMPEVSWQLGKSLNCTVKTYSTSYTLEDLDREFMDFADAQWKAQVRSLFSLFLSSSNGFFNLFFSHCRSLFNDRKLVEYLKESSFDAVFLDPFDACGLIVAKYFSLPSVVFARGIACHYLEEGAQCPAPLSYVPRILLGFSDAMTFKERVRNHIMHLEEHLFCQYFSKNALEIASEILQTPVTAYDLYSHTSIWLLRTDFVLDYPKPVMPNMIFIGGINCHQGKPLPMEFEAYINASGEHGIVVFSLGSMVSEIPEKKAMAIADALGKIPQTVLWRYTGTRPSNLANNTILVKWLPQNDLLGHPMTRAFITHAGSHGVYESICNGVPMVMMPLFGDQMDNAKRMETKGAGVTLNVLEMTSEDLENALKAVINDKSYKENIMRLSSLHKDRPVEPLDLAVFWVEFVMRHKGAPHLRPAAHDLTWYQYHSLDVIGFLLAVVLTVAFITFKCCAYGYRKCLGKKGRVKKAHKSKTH"}, "[2]": {"molecular_target": "T2, UGT1A3 (Homo sapiens, UniProt P35503)", "T2 sequence (P35503 29-534)": "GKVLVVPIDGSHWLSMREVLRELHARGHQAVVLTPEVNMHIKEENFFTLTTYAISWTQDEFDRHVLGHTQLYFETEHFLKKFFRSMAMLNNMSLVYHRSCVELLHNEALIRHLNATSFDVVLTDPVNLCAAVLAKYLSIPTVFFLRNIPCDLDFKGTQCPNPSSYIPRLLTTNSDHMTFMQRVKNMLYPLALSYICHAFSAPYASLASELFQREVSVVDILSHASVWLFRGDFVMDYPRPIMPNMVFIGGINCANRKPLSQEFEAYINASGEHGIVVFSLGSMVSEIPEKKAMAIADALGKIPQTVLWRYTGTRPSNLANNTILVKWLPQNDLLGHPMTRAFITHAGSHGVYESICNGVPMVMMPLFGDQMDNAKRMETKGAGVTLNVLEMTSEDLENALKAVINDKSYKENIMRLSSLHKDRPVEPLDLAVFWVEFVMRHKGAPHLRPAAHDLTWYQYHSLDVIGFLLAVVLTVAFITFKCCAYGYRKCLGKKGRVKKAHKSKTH", "settings": "pH 7.5; for velocity of AP-G formation: 60 min"}, "[3]": {"molecular_target": "T3, UGT2B17 (Homo sapiens, UniProt O75795)", "T3 sequence (O75795 24-530)": "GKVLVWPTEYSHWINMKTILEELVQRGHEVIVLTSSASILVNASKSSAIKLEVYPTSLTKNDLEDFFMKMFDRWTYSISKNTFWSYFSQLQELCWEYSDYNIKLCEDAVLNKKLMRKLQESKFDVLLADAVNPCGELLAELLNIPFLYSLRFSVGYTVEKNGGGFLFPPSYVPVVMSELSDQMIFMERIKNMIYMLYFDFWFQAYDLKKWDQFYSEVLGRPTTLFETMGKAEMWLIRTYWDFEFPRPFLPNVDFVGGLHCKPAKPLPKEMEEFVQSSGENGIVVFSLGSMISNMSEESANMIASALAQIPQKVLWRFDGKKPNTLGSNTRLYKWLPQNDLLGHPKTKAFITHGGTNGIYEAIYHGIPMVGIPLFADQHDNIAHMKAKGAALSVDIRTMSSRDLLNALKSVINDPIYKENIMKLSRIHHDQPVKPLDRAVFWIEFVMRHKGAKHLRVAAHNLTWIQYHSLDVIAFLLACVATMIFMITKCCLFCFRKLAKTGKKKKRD", "test": "Screening for aprepitant glucuronidation, UGT2B17 Supersomes", "assay_type": "in vitro ADME", "settings": "UGT2B17, 5 and 250 µM aprepitant"}, "[4]": {"molecular_target": "T4, UGT1A6 (Homo sapiens, UniProt P19224)", "T4 sequence (P19224 27-532)": "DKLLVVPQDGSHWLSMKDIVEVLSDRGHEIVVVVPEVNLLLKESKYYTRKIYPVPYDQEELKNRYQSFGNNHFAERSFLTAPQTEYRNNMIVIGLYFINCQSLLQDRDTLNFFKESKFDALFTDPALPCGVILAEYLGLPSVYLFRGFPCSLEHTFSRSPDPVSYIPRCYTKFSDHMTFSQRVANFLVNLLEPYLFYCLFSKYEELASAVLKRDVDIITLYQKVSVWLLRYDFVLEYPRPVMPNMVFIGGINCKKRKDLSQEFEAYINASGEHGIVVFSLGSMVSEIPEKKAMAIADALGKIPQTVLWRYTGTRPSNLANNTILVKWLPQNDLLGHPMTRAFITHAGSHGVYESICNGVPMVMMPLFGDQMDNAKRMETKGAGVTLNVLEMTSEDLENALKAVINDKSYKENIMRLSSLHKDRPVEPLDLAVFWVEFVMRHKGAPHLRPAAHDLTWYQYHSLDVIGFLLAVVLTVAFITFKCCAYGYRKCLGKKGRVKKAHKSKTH", "test": "Screening for aprepitant glucuronidation, UGT1A6 Supersomes", "assay_type": "in vitro ADME", "settings": "UGT1A6, 5 and 250 µM aprepitant"}, "[5]": {"molecular_target": "T5, UGT1A10 (Homo sapiens, UniProt Q9HAW8)", "T5 sequence (Q9HAW8 26-530)": "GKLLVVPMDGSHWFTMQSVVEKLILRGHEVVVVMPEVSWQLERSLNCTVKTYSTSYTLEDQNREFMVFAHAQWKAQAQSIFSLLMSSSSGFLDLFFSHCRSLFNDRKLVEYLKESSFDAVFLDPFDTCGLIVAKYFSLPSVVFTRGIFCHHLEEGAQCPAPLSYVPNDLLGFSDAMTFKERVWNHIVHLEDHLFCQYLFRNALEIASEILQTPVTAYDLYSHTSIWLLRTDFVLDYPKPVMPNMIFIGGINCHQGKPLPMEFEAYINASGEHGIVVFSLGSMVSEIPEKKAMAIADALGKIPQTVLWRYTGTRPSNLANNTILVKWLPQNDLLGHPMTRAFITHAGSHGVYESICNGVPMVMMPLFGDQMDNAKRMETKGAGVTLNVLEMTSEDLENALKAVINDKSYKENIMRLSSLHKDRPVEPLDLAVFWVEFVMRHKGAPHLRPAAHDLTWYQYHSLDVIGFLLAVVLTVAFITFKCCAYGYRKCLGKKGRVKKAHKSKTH", "test": "Screening for aprepitant glucuronidation, UGT1A10 Supersomes", "assay_type": "in vitro ADME", "settings": "UGT1A10, 5 and 250 µM aprepitant"}}, "note": "Like-named read-outs stand apart in the source and are kept apart here."}
{"smiles": "C[C@@H](O[C@H]1OCCN(Cc2n[nH]c(=O)[nH]2)[C@H]1c1ccc(F)cc1)c1cc(C(F)(F)F)cc(C(F)(F)F)c1", "note": "[aprepitant, Aprepitant]", "values": [{"measurement": "Vmax", "setting": "[1]; UGT1A8, mean ± SE", "result": "683 ± 69", "unit": "fmol/min/mg protein"}, {"measurement": "n (Hill coefficient)", "setting": "[1]; UGT1A8, mean ± SE", "result": "1.2 ± 0.1"}, {"measurement": "velocity of AP-G formation", "setting": "[1]; human, 60 min, 250 µM, pH 7.5", "result": "391 ± 10.6", "unit": "fmol/min/mg protein"}, {"measurement": "CLint", "setting": "[1]; human, recombinant enzyme, pH 7.5", "result": 3.5, "unit": "µl/min/µg protein"}, {"measurement": "velocity of AP-G formation", "setting": "[2]; 5 µM", "result": "44.1 ± 0.7", "unit": "fmol/min/mg protein"}, {"measurement": "velocity of AP-G formation", "setting": "[2]; 250 µM", "result": "717.3 ± 18.6", "unit": "fmol/min/mg protein"}, {"measurement": "CLint", "setting": "[2]; recombinant enzyme", "result": 15, "unit": "µl/min/µg protein"}, {"measurement": "AP-G formation", "setting": "[3]", "result": "not detected"}, {"measurement": "AP-G formation", "setting": "[4]", "result": "not detected"}, {"measurement": "AP-G formation", "setting": "[5]", "result": "not detected"}]}
